Broadly, the MIC is the least concentration at which growth counts as inhibited.

≈ marks a conversion by molar mass, not a printed value. Where two headings read alike, the source gives them in different places. Marks after values point to notes of the source that are not given here. A value given as a limit tells only on which side of the number the result lay.

Series [1] has as its system Pseudomonas aeruginosa DSM 50071. Briefly: MIC by microbroth dilution. Format: cell-based. Particulars: 16 h, 30° C., n.i. = no inhibition up to 67 μg/ml. The procedure:
(§1) Bacterial strains. Bacterial wildtype strains used in susceptibility assays were either part of HZI's strain collection or purchased from the German Collection of Microorgansims and Cell Cultures (Deutsche Sammlung von Mikroorganismen und Zellkulturen, DSMZ).
(§2) Minimum inhibitory concentration (MIC) was determined by microbroth dilution. In brief, overnight cultures of bacteria (EBS medium) were diluted to OD600 0.01. Disciformycin A (1) or B (2) dissolved in DMSO was added directly to the cultures in 96-well plates (Sarstedt, flat bottom) in duplicate and the compound was tested in serial dilution. […] After 16 h incubation at 900 rpm and 30° C. on a microplate shaker (Titramax, Heidolph) absorbance at 600 nm was measured using a microplate reader (POLARstar Omega, BMG Labtech). MIC values were determined by sigmoidal curve fitting.
(In general: Dilution methods test growth across graded concentrations, often in twofold steps.)

Series [2] has as its system S. aureus N315 mutant Mt50DscA.1. Briefly: Susceptibility (MIC) of Disciformycin A-resistant mutant. Format: cell-based. Particulars: Staphylococcus aureus.
The test system of series [3] is S. aureus N315 mutant Mt50DscA.5. The description is as above. It counts as cell-based. Particulars: Staphylococcus aureus.
Series [4] deals with S. aureus N315 mutant Mt50DscA.6. The description is as above. Format: cell-based. Particulars: Staphylococcus aureus.
Series [5] concerns S. aureus N315 wildtype (WT). Briefly: Susceptibility (MIC) of S. aureus N315 wildtype. Format: cell-based. To be noted: Staphylococcus aureus.
Series [6] relates to S. aureus N315 mutant Mt50DscA.3. Briefly: Susceptibility (MIC) of Disciformycin A-resistant mutant. Format: cell-based. To be noted: Staphylococcus aureus.
Series [7] has as its system S. aureus N315 Mt50DscA.9. Described as above. It counts as cell-based. Particulars: Staphylococcus aureus.
In series [8] the test system is S. aureus Newman in PMA-differentiated human THP-1 cell line (macrophages). Briefly: Intra-macrophage activity. Format: cell-based. Particulars: at 8×MIC, 18 h, MOI 10, cfu counting. The source says: The PMA-differentiated human THP-1 cell line (macrophages) was used as cellular host for infection with S. aureus Newman at an MOI (multiplicity of infection) of 10. […] Intracellular bacteria were recovered and serial dilutions were streaked out on CASO-Agar for cfu counting. The reference drug rifampicin reduced the number of intracellular bacteria by ca. 4 logs (at 8×MIC).

The subject of series [9] is S. aureus N315 mutant Mt50DscA.8. In words: Susceptibility (MIC) of Disciformycin A-resistant mutant. It counts as cell-based. Particulars: Staphylococcus aureus.
The subject of series [10] is S. aureus N315 mutant Mt50DscA.2. Described as above. To be noted: Staphylococcus aureus. It counts as cell-based.
The subject of series [11] is S. aureus N315 mutant Mt50DscA.10. Described as above. It counts as cell-based. Particulars: Staphylococcus aureus.
For series [12], the system named is S. aureus N315 mutant Mt50DscA.11. The description is as above. To be noted: Staphylococcus aureus. Format: cell-based.
The subject of series [13] is S. aureus N315 mutant Mt50DscA.4. The description is as above. Format: cell-based. To be noted: Staphylococcus aureus.
Series [14] has as its system Staphylococcus aureus (MRSA) DSM-11822. Briefly: MIC by microbroth dilution. Format: cell-based. Particulars: Staphylococcus aureus, 16 h. The procedure: as §1, §2
In series [15] the test system is transformed lung epithelial A-549 cells. Briefly: MTT assay, cytotoxic activity. To be noted: incubation 24 or 48 hours. It counts as cell-based, human. The procedure:
(§3) The cytotoxic activity of gulmirecin A (3) and gulmirecin B (4) against human cells was evaluated in the well-established MTT assay using primary monocytes from human peripheral blood as well as transformed lung epithelial cell A-549 cell and leukemic Mono Mac 6 cells. Furthermore, 3 and 4 were tested against K-562, HUVEC, and HeLa cells.
(§4) The human monocytic cell line Mono Mac 6 was cultured in RPMI 1640 medium supplemented with FCS (10%, v/v), penicillin (100 U/ml), streptomycin (100 μg/ml), insulin (10 μg/ml), oxaloacetic acid (1 mM), sodium pyruvate (1 mM), and 1× non-essential amino acids at 37° C. and 5% CO2. A-549 cells (DSM ACC-107) were cultured in DMEM high glucose (4.5 g/l) medium supplemented with FCS (10% v/v), penicillin (100 U/ml) and streptomycin (100 μg/ml) at 37° C. in a 5% CO2 incubator. K-562 (DSM ACC 10) and HeLa cells (DSM ACC 57) were grown in RPMI 1640, whereas cells of HUVEC (ATCC CRL-1730) were cultured in DMEM medium. The respective media were supplemented with ultraglutamine 1 (10 ml/l), gentamicin sulfate (500 μl/l), and FCS (10% v/v).
(§5) Cells (3×10^5 Mono Mac 6, 1×10^5 A-549 cells, or 2×10^6 monocytes per well) were seeded in a 96-well plate in the respective medium (100 μl/well). Monocytes were allowed to adhere for 1.5 hours (37° C., 5% CO2) prior to treatment. Test compounds (0.3% DMSO as vehicle) were added to each well and samples were incubated for 48 hrs. Then, 20 μl of thiazolyl blue tetrazolium bromide (MTT, 5 mg/ml PBS) were added, and the incubation was continued at 37° C., 5% CO2 until blue staining of the vehicle control. Formazan formation was stopped by adding 100 μl of lysis buffer (SDS, 10%, w/v in 20 mM HCl) and samples were shaken overnight. Absorbance of each well was measured at 570 nm in a Multiskan™ microplate spectrophotometer (Thermo Scientific).
In general terms: Formazan colour is commonly taken as a measure of viable cells.

In series [16] the test system is leukemic Mono Mac 6 cells. In words: MTT assay, cytotoxic activity. To be noted: incubation 24 or 48 hours. Format: cell-based, human. On the procedure:
as §3, §4
as §5, with “Test compounds (0.3% DMSO as vehicle) were added to each well and samples were incubated for 48 hrs.” left out

Series [17] relates to primary monocytes from human peripheral blood. Briefly: MTT assay, cytotoxic activity. Format: cell-based. To be noted: incubation 24 or 48 hours. The procedure: as §3
Human primary monocytes were isolated from leukocyte concentrates, obtained from the Institute of Transfusion Medicine at the University Hospital Jena, Germany. The concentrates were prepared from the blood of healthy adult human donors who had not taken any anti-inflammatory medication for the 10 days prior to blood donation, as described. In brief, freshly withdrawn peripheral blood was pretreated with citrate-phosphate-dextrose solution as anticoagulant and processed with the 2C+ protocol of the Atreus Whole Blood Processing System (Terum BCT). Peripheral blood mononuclear cells (PBMC) were isolated by dextran sedimentation and centrifugation on LSM 1077 lymphocyte separation medium (PAA Laboratories). For isolation of monocytes, the PBMC were washed twice with ice-cold phosphate buffered saline (PBS) and plated (density 2×10^7 cells/ml) in culture flasks (Greiner Bio-One) containing PBMC medium (RPMI 1640 medium supplemented with 100 U/ml penicillin, 100 μg/ml streptomycin and 2 mM L-glutamine) for 1.5 hours at 37° C., 5% CO2. Non-adherent cells were removed; adherent monocytes were scraped, washed with ice-cold PBS and resuspended in ice-cold PBS with a purity of >85%, defined by forward- and side-light scatter properties and detection of the CD14 surface molecule by flow cytometry (BD FACS Calibur). […]
Cells (3×10^5 Mono Mac 6, 1×10^5 A-549 cells, or 2×10^6 monocytes per well) were seeded in a 96-well plate in the respective medium (100 μl/well). […] Absorbance of each well was measured at 570 nm in a Multiskan™ microplate spectrophotometer (Thermo Scientific).

Series [18] deals with Escherichia coli DSM 1116. Briefly: MIC by microbroth dilution. It counts as cell-based. Particulars: 16 h, 30° C., n.i. = no inhibition up to 67 μg/ml. On the procedure: as §1, §2
In series [19] the test system is Paenibacillus polymyxa DSM 36. Briefly: MIC by microbroth dilution. Particulars: 16 h, 30° C., n.i. = no inhibition up to 67 μg/ml. It counts as cell-based. The procedure:
as §1, §2

In series [20] the test system is Staphylococcus aureus DSM 346. Briefly: MIC by microbroth dilution. It counts as cell-based. To be noted: 16 h, 30° C., n.i. = no inhibition up to 67 μg/ml. The procedure:
as §1, §2

Series [21] concerns Micrococcus luteus DSM 20030. In words: MIC by microbroth dilution. Format: cell-based. Particulars: 16 h, 30° C., n.i. = no inhibition up to 67 μg/ml. The procedure: as §1, §2
Series [22] has as its system Mycobacterium diemhoferi DSM 43524. Briefly: MIC by microbroth dilution. It counts as cell-based. Particulars: 16 h, 30° C., n.i. = no inhibition up to 67 μg/ml. The procedure:
as §1, §2

The subject of series [23] is Nocardioides simplex DSM 20130. Briefly: MIC by microbroth dilution. It counts as cell-based. Particulars: 16 h, 30° C., n.i. = no inhibition up to 67 μg/ml. The procedure: as §1, §2
For series [24], the system named is Mycobacterium sp. DSM 43270. Briefly: MIC by microbroth dilution. It counts as cell-based. To be noted: 16 h, 30° C., n.i. = no inhibition up to 67 μg/ml. On the procedure: as §1, §2
A further series concerns Bacillus subtilis DSM 10. Briefly: MIC by microbroth dilution. Format: cell-based. To be noted: 16 h, 30° C., n.i. = no inhibition up to 67 μg/ml. The procedure: as §1, §2
The subject of series [25] is Chromobacterium violaceum DSM 30191. Briefly: MIC by microbroth dilution. It counts as cell-based. Particulars: 16 h, 30° C., n.i. = no inhibition up to 67 μg/ml. The procedure: as §1, §2

For the molecule Gentamycin [reference compound], in [1], the MIC was 42.0^[b] μg/ml.
As for `C/C=C(/C)[C@H]1C/C=C(\C)[C@@H](O[C@H]2O[C@H](CO)[C@@H](O)[C@@H]2O)[C@H](OC(=O)CC(C)C)C(=O)C[C@@H](OC)[C@H](C)C(=O)O1` [Compound 5, disciformycin C], the MIC was greater than 64000 ng/mL in series [2]; 32000 ng/mL (≈ 57500 nM) in [3]; greater than 64000 ng/mL in series [4]; 4000 ng/mL (≈ 7190 nM) in series [5]; greater than 64000 ng/mL in series [6].
Turning to `CO[C@H]1/C=C/O[C@@]2(C)Oc3c(C)c(O)c4c(O)c(c(/C=N/N5CCN(C)CC5)c(O)c4c3C2=O)NC(=O)/C(C)=C\C=C\[C@H](C)[C@H](O)[C@@H](C)[C@@H](O)[C@@H](C)[C@H](OC(C)=O)[C@@H]1C` [rifampicin, reference compound], the MIC in series [2] stood at 3 ng/mL (≈ 3.65 nM); in series [7] it was 1 ng/mL (≈ 1.22 nM); in [3], 1 ng/mL (≈ 1.22 nM); in [9], 1 ng/mL (≈ 1.22 nM); in series [4], 1 ng/mL (≈ 1.22 nM); in series [10], 5 ng/mL (≈ 6.08 nM). Besides, the MIC in series [11] amounted to 1 ng/mL (≈ 1.22 nM); in series [12], 1 ng/mL (≈ 1.22 nM); in series [5] (S. aureus N315 WT, read-out: MIC) it was 3 ng/mL (≈ 3.65 nM); in [13], 1 ng/mL (≈ 1.22 nM); in series [6], 3 ng/mL (≈ 3.65 nM). In addition, in series [8], the “reduction of the number of intracellular bacteria” value is “ca. 4 logs”.
`CN[C@H](CC(C)C)C(=O)N[C@H]1C(=O)N[C@@H](CC(N)=O)C(=O)N[C@H]2C(=O)N[C@H]3C(=O)N[C@H](C(=O)N[C@H](C(=O)O)c4cc(O)cc(O)c4-c4cc3ccc4O)[C@H](O)c3ccc(c(Cl)c3)Oc3cc2cc(c3O[C@@H]2O[C@H](CO)[C@@H](O)[C@H](O)[C@H]2O[C@H]2C[C@](C)(N)[C@H](O)[C@H](C)O2)Oc2ccc(cc2Cl)[C@H]1O` [Vancomycin, reference compound] gave an MIC in series [14] of 830 ng/mL (≈ 573 nM).
`CN[C@@H]1C[C@H]2O[C@@](C)([C@@H]1OC)n1c3ccccc3c3c4c(c5c6ccccc6n2c5c31)C(=O)NC4` [staurosporine, reference compound]: the “cell viability / cytotoxicity (MTT)” value in series [15], in series [16] and in series [17] was “highly cytotoxic” throughout.
For `CN(C)[C@@H]1C(O)=C(C(N)=O)C(=O)[C@@]2(O)C(O)=C3C(=O)c4c(O)cccc4[C@@](C)(O)[C@H]3[C@H](O)[C@@H]12.Cl` [Oxytetracyclin hydrochloride, reference compound], the MIC in series [18] is 0.83^[a] μg/ml; in series [19] it was 1.7^[a] μg/ml; in series [20], 0.21^[a] μg/ml; in series [21], 0.42^[a] μg/ml; in series [22], ≤0.052^[a] μg/ml; in series [23], 3.3^[a] μg/ml. Besides, the MIC in series [24] was 0.52^[a] μg/ml; against Bacillus subtilis DSM 10 it was 4.2^[a] μg/ml; in series [25] it was 0.83^[a] μg/ml.
Take `C/C=C(/C)[C@H]1C/C=C(\C)[C@@H](O[C@H]2O[C@H](CO)[C@@H](O)[C@@H]2O)[C@H](OC(=O)CC(C)C)C(=O)C[C@@H](SC)[C@H](C)C(=O)O1` [Compound 6, disciformycin D]: the MIC was 32000 ng/mL (≈ 55900 nM) in [2]; 4000 ng/mL (≈ 6980 nM) in [3]; 32000 ng/mL (≈ 55900 nM) in series [4]; 500 ng/mL (≈ 873 nM) in series [5]; 64000 ng/mL (≈ 112000 nM) in series [6].

The values above are taken from patent US20200231562A1, “NOVEL MACROLIDE ANTIBIOTICS” (HELMHOLTZ-ZENTRUM FÜR INFEKTIONSFORSCHUNG GMBH, priority 2014, published 2020).
